Data published in patent US8367328B2, “Method for synthesizing DNA” (Takara Bio Inc., priority 1998, dated 2013).

Target: T1, Taq DNA Polymerase (Thermus aquaticus, UniProt P19821)
T1 construct: purchased Takara Shuzo Co., Ltd
Assay: PCR with Taq DNA Polymerase in the presence of cationic complexes
Format: biochemical
Conditions: for Amount of amplified DNA relative to No Addition (=1), Taq: 100 pg E. coli JM109 genomic DNA, primers Eco1/Eco2, 30 cycles 98°C 5 s–68°C 2 min, FM-BIO 100
Excerpt: Using hexaamminecobalt (III) chloride ([Co(NH3)6]Cl3) (manufactured by Sigma), tris(ethylenediamine)cobalt (III) chloride ([Co(C2H8N2)3]Cl3) (manufactured by Aldrich), or tris(ethylenediamine)rhodium (III) trichloride•trihydrate ([Rh(C2H8N2)3]Cl3.3H2O) (manufactured by Aldrich), the effects on the amplification reaction by various kinds of DNA polymerases were examined. As the DNA polymerases, TaKaRa Taq DNA Polymerase (hereinafter referred to as “Taq DNA Polymerase” manufactured by Takara Shuzo Co., Ltd.), Pyrobest DNA Polymerase (manufactured by Takara Shuzo Co., Ltd.) and Ex Taq DNA Polymerase (manufactured by Takara Shuzo Co., Ltd.) were used.
A reaction mixture comprising Escherichia coli JM109 genomic DNA as a template, primers Eco1 and Eco2 as a primer pair, and DNA polymerase was prepared, and PCR was carried out. The compositions of the reaction mixture for each enzyme are as follows.
5 μl of buffer for 10×Taq PCR buffer (manufactured by Takara Shuzo Co., Ltd.), 0.2 mM each of dATP, dCTP, dGTP and dTTP, 1.25 U of Taq DNA Polymerase, 100 pg of Escherichia coli JM109 genomic DNA, and 10 pmol each of primers Eco1 and Eco2 (a final volume being 50 μl).
Further, an aqueous solution of the above-mentioned complexes each so as to have a final concentration of 50 μM, 100 μM, or 200 μM was added to the above reaction mixture.
The reaction was carried out in Fast mode by using TaKaRa PCR Thermal Cycler Personal (manufactured by Takara Shuzo Co., Ltd.). The reaction conditions are as follows. When using Taq DNA Polymerase and Pyrobest DNA Polymerase, the reaction in 30 cycles was carried out for each of these reaction mixtures, wherein one cycle of reaction comprises a process consisting of 98° C., 5 seconds—68° C., 2 minutes, and when using ExTaq DNA Polymerase, the reaction in 30 cycles was carried out for each of these reaction mixtures, wherein one cycle of reaction comprises a process consisting of 98° C., 5 seconds—68° C., 1 minute. After the termination of the reaction, 5 μl of the resulting reaction mixture was subjected to electrophoresis on 2% agarose gel containing ethidium bromide in an amount of 0.00005%. The gel after the electrophoresis was subjected to ultraviolet irradiation to visualize the band ascribed to the amplified product, whereby an amplified fragment was confirmed. The amount of amplified DNA was numerically explained by using a fluorescent image analyzer FM-BIO 100 (manufactured by Takara Shuzo Co., Ltd.).
The DNA polymerases used and the composition for the reaction mixture were similar to those in Example 17, except for the cationic complex, where in cases of using Taq DNA Polymerase and Pyrobest DNA Polymerase, hexaamminecobalt (III) chloride was added so as to have a final concentration of 100 μM, and in a case of using ExTaq DNA Polymerase, hexaamminecobalt (III) chloride was added so as to have a final concentration of 50 μM, respectively.
The reaction was carried out in Fast mode by using TaKaRa PCR Thermal Cycler Personal. The reaction conditions are as follows. When using Taq DNA Polymerase and Pyrobest DNA Polymerase, the reaction in 30 cycles was carried out, wherein one cycle of reaction comprises a process consisting of 98° C., […], 60 seconds or 80 seconds or 100 seconds or 120 seconds. When using ExTaq DNA Polymerase, the reaction in 30 cycles was carried out, wherein one cycle of reaction comprises a process consisting of 98° C., 5 seconds—68° C., 30 seconds or 40 seconds or 50 seconds or 60 seconds.
On the other hand, as a control, the time period or number of cycles for annealing and extension reaction were determined so as to obtain the same amount of the amount of amplified product for one without addition of the cationic complex mentioned above.
After the termination of the reaction, 5 μL of the resulting reaction mixture was subjected to electrophoresis on 2% agarose gel containing ethidium bromide in an amount of 0.00005%. […]

T1 sequence (P19821 whole entry): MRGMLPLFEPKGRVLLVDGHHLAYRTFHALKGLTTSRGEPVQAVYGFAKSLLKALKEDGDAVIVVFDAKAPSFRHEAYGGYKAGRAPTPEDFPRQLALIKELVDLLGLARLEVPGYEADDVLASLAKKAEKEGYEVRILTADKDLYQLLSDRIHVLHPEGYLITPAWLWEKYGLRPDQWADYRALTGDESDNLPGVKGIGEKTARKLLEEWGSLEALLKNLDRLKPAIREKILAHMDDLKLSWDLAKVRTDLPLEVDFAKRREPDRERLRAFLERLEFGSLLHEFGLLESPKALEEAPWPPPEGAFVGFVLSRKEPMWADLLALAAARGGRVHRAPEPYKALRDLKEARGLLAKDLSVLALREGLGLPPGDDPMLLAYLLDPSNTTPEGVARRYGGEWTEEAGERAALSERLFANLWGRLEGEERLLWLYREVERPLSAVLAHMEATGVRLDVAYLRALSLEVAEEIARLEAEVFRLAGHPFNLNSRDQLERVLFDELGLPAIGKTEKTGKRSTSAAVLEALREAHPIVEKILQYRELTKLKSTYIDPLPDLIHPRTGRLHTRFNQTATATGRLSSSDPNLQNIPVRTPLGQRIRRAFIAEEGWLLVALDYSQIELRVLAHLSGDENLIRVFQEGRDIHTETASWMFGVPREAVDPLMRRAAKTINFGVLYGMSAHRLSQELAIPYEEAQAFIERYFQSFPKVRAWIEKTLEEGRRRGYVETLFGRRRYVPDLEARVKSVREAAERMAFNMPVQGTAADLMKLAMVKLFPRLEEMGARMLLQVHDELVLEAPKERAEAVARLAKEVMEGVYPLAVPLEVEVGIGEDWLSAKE

SMILES	Amount of amplified DNA relative to No Addition (=1), Taq (complex 50 μM)	Amount of amplified DNA relative to No Addition (=1), Taq (complex 100 μM)	Amplification with one-half the usual enzyme amount versus usual amount without addition (Taq 0.625 U + 100 μM complex vs 1.25 U without addition)	Amplification of desired long DNA fragment (Taq, 10 ng E. coli genome, primers Eco1/Eco5 (10 kb), 30 cycles 98°C 5 s–68°C 10 min, 10 μM or 20 μM, only slight without addition)	Reaction time period as fraction of that of no addition (Taq, 100 μM)	Time Period Required (for same amount of amplified product) (Taq, 100 μM complex added, 98°C 5 s–68°C 60 s, 30 cycles (no addition: 120 s, 31 cycles, 4911 s))	Primer amount with which a fragment can still be amplified (Taq, 100 μM complex, primers 2–20 pmol tested, no amplification without addition)	Amount of template DNA at which amplification was still possible (Taq, 100 μM complex, templates 1 pg–1 ng tested, no amplification at 1 pg without addition)	Amplification in low-magnesium reaction mixture (Taq, 0.75 mM magnesium chloride (usual 1.5 mM), 100 μM complex, no amplification without addition)	Amount of amplified DNA relative to No Addition (=1), Taq (complex 200 μM)
NCCN.NCCN.NCCN.[Cl-].[Cl-].[Cl-].[Co+3] [[Co(H2NCH2CH2NH2)3]Cl3, tris(ethylenediamine)cobalt (III) chloride]	2.6	3.0								
N.N.N.N.N.N.[Cl-].[Cl-].[Cl-].[Co+3] [[Co(NH3)6]Cl3, hexaamminecobalt (III) chloride]	2.3	2.9	almost the same level	excellently amplified	about ⅗	2953 s	2 pmol	1 pg	allowed to amplify	
NCCN.NCCN.NCCN.O.O.O.[Cl][Rh]([Cl])[Cl] [[Rh(H2NCH2CH2NH2)3]Cl3, tris(ethylenediamine)rhodium (III) trichloride•trihydrate]	1.4	2.1								2.5
